Values after ≈ are worked out from the molar mass of the structure shown.
Assay: physchem
Type: physicochemical
Conditions: water
Text: Conjugating dexamethasone to a water-soluble polymer makes dexamethasone water soluble, which allows for more consistent dispensing. […] As further shown in FIG. 22D, dispensing of the solution of 18 without a crosslinking agent (left panel) and with a crosslinking agent (right panel) was consistent and performed without difficulty.

- solubility: 50 µg/mL (≈ 127 µM)
Structure (SMILES): C[C@@H]1C[C@H]2[C@@H]3CCC4=CC(=O)C=C[C@]4(C)[C@@]3(F)[C@@H](O)C[C@]2(C)[C@@]1(O)C(=O)CO [dexamethasone]
